# Source: US20050265999A1, “Modulation of 5-HT2 receptors as a treatment for cardiovascular diseases” (Myogen, Inc., priority 2003, published 2005)
# Key:
# [1] = system: neonatal rat ventricular myocytes (NRVM); test: Cytotoxicity by adenylate kinase (AK) release from NRVM; type: cell-based
# Method: (§1) Hypertrophy and toxicity assays. Primary hypertrophy endpoints for NRVM included quantitation of: ANF secretion, total cellular protein and cell volume. ANF in media supernatants was quantitated by competitive ELISA using a monoclonal anti-ANF antibody (Biodesign) and a biotinylated ANF peptide (Phoenix Peptide). Total cellular protein was quantitated by standard Coomassie dye-binding assay; cells were lysed in protein assay reagent (BioRad) and absorbance at A595 was measured after 1 hour. For cell volume measurements, NRVM cultured in 6-well dishes were harvested by treatment with trypsin (Cellgro). After recovery by centrifugation, cell pellets were washed in PBS, resuspended in 10 ml IsoFlow electrolyte solution (Beckman-Coulter) and analyzed with a Z2 Coulter Particle Counter and Size Analyzer (Beckman-Coulter). Cytotoxicity was quantitated by measuring release of adenylate kinase (AK) from cultured NRVM into culture medium (ToxiLight kit, Cambrex).
# HDAC5 = test: HDAC localization assay, GFP-HDAC5 in NRVM; type: cell-based, rat
# Method: NRVM culture. For preparations of neonatal rat ventricular myocytes (NRVMs), hearts were removed from 10-20 newborn (1-2 days old) Sprague-Dawley rats. Isolated ventricles were pooled, minced and dispersed by three 20-min incubations at 37° C. in Ads buffer (116 mM NaCl, 20 mM HEPES, 10 mM NaH2PO4, 5.5 mM glucose, 5 mM KCl, 0.8 mM MgSO4, pH 7.4) containing collagenase Type II (65 units/ml, Worthington) and pancreatin (0.6 mg/ml, GibcoBRL). Dispersed cells were applied to a discontinuous gradient of 40.5% and 58.5% (v/v) Percoll (Amersham Biosciences), centrifuged, and myocytes collected from the interface layer. Myocyte preparations were pre-plated in Dulbecco's modified Eagle's medium (DMEM, Cellgro), supplemented with 10% (v/v) fetal bovine serum (FBS, HyClone), 4 mM L-glutamine and 1% penicillin/streptomycin for 1 hour at 37° C. to reduce fibroblast contamination, then plated at a density of 2.5×10^5 cells per well on 6-well tissue culture plates (or 10,000 cells/well on 96-well tissue culture plates) coated with a 0.2% (w/v) gelatin solution. After 24 hours in culture, myocyte preparations were transferred to serum-free maintenance medium (DMEM supplemented with 0.1% (v/v) Nutridoma (Roche), L-glutamine and penicillin/streptomycin). Where indicated, NRVM were treated with test compounds for a period of 48 h. For immunofluorescence applications, NRVM cultures were fixed, incubated with primary antibodies against alpha skeletal actin and atrial natriuretic factor, then incubated with rhodamine- or flurorescein-conjugated secondary antibodies. For HDAC localization assays, NRVM were plated to clear bottomed 96-well plates and infected overnight with recombinant adenovirus encoding HDAC5 fused to green fluorescent protein (multiplicity of infection=50). The next day, medium was replaced with serum-free maintenance medium for 4 hours, and test compounds added. After two hours, NRVM were fixed and imaged by fluorescent microscopy.
# 5-HT2B = target: T1, 5-HT2B (Homo sapiens, UniProt P41595); test: Radioligand receptor binding assay (MDS Pharma); conditions: 10 μM compound, n=2
# T1 construct: purchased MDS Pharma services 271700
# Method: (§2) Receptor binding assays. Receptor binding assays were performed by MDS Pharma services. Assays included: Adenosine A1 (cat# 200510), Adenosine A2A (cat# 200610), Adenosine A3 (cat# 200720), Adrenergic alpha 1 (cat# 203500), Imidazoline 12 central (cat# 241000), Imidazoline I2 peripheral (cat# 241100), Inositol triphosphate (cat# 242500), Phorbol Ester (cat# 264500), 5-HT 2B (cat# 271700), and 5-HT 4 (cat# 272000).
# (§3) • Summary of radioligand binding assays for 11 receptors. Data represent % inhibition of ligand binding in the presence of 10 μM 18264 (n=2).
# (§4) • Summary of radioligand binding assays for three receptors. Data represent % inhibition of ligand binding in the presence of 10 μM 20068 (n=2).
# 5-HT1 = test: Radioligand receptor binding assay; conditions: 10 μM compound, n=2
# Method: as §2, §3, §4
# [2] = system: neonatal rat ventricular myocytes (NRVM); test: ANF secretion by competitive ELISA in NRVM; type: cell-based; conditions: NRVM stimulated with 18264 (1 μM), 48 h; antagonist up to 3 μM
# Method: (§5) NRVM culture. For preparations of neonatal rat ventricular myocytes (NRVMs), hearts were removed from 10-20 newborn (1-2 days old) Sprague-Dawley rats. Isolated ventricles were pooled, minced and dispersed by three 20-min incubations at 37° C. in Ads buffer (116 mM NaCl, 20 mM HEPES, 10 mM NaH2PO4, 5.5 mM glucose, 5 mM KCl, 0.8 mM MgSO4, pH 7.4) containing collagenase Type II (65 units/ml, Worthington) and pancreatin (0.6 mg/ml, GibcoBRL). Dispersed cells were applied to a discontinuous gradient of 40.5% and 58.5% (v/v) Percoll (Amersham Biosciences), centrifuged, and myocytes collected from the interface layer. Myocyte preparations were pre-plated in Dulbecco's modified Eagle's medium (DMEM, Cellgro), supplemented with 10% (v/v) fetal bovine serum (FBS, HyClone), 4 mM L-glutamine and 1% penicillin/streptomycin for 1 hour at 37° C. to reduce fibroblast contamination, then plated at a density of 2.5×10^5 cells per well on 6-well tissue culture plates (or 10,000 cells/well on 96-well tissue culture plates) coated with a 0.2% (w/v) gelatin solution. […]
# as §1, with “For cell volume measurements, NRVM cultured in 6-well dishes were harvested by treatment with trypsin (Cellgro).” left out
# [3] = system: 28 kDa calcineurin-regulated MCIP1 protein; test: Western blot of MCIP1 protein in NRVM; type: cell-based, rat; conditions: NRVM stimulated with 18264 (1 μM), 48 h; CsA 500 nM; ketanserin, cyproheptadine 0.3 and 3 μM; 20068 1 and 3 μM
# Method: as §5
# Western Blots. […] Protein concentrations were determined by the bicinchoninic acid method (BCA Protein Assay, Pierce) with bovine serum albumin as a standard. Equivalent quantities of protein samples ([…]) were denatured in Laemmli buffer and resolved on Tris-glycine SDS-PAGE gels (4-20% acrylamide gradient, Invitrogen). […]
# 5-HT2C = target: T2, 5-HT2C (Homo sapiens, UniProt P28335); test: Radioligand receptor binding assay; conditions: 10 μM compound, n=2
# T2 sequence (P28335 33-458): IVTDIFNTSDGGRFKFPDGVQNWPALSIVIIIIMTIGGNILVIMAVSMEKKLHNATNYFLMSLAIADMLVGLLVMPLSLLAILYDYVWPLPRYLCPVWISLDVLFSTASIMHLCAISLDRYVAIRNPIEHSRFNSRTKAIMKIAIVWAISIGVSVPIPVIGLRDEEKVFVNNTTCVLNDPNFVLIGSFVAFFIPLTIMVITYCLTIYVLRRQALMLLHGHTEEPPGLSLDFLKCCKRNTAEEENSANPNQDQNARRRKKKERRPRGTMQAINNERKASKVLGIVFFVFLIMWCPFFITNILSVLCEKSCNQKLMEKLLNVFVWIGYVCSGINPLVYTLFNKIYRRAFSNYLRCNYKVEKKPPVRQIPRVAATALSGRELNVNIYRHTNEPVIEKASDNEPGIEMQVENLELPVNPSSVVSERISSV
# [4] = system: neonatal rat ventricular myocytes (NRVM); test: Cell volume measurement (Coulter counter) of NRVM; type: cell-based; conditions: PE-stimulated (20 μM) NRVM, 48 hours
# Method: as §5
# as §1, with “For cell volume measurements, NRVM cultured in 6-well dishes were harvested by treatment with trypsin (Cellgro).” left out
# [5] = system: neonatal rat ventricular myocytes (NRVM); test: Total cellular protein (Coomassie dye-binding) in NRVM; type: cell-based; conditions: PE-stimulated (20 μM) NRVM, 0.1-3 μM compound, 48 hours
# Method: NRVM culture. For preparations of neonatal rat ventricular myocytes (NRVMs), hearts were removed from 10-20 newborn (1-2 days old) Sprague-Dawley rats. Isolated ventricles were pooled, minced and dispersed by three 20-min incubations at 37° C. in Ads buffer (116 mM NaCl, 20 mM HEPES, 10 mM NaH2PO4, 5.5 mM glucose, 5 mM KCl, 0.8 mM MgSO4, pH 7.4) containing collagenase Type II (65 units/ml, Worthington) and pancreatin (0.6 mg/ml, GibcoBRL). Dispersed cells were applied to a discontinuous gradient of 40.5% and 58.5% (v/v) Percoll (Amersham Biosciences), centrifuged, and myocytes collected from the interface layer. […]
# as §1, with “For cell volume measurements, NRVM cultured in 6-well dishes were harvested by treatment with trypsin (Cellgro).” left out, “Cytotoxicity was quantitated by measuring release of adenylate kinase (AK) from cultured NRVM into culture medium (ToxiLight kit, Cambrex).” left out
# T1 sequence (P41595 whole entry): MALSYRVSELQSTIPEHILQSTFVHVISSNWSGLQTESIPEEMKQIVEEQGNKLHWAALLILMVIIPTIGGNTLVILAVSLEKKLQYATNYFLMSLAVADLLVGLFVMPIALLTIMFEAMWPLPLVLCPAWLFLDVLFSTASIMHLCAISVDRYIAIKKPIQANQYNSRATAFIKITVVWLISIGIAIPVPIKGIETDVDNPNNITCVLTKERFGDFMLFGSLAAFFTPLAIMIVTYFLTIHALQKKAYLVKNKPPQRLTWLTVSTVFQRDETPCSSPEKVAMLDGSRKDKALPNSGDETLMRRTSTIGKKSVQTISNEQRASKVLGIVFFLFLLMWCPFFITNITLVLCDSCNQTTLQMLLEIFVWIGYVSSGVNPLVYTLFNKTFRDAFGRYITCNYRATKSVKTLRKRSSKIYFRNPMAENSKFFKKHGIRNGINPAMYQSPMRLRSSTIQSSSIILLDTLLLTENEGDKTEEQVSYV
compound,measurement,setting,value
Triton X-100 [reference compound],fold change in AK release versus unstimulated control,"[1]; 0.1% Triton X-100, positive control",approximately 6.5 fold
"CNC[C@H](O)c1cccc(O)c1 [PE, phenylephrine, reference compound]",nuclear export of HDAC5-GFP,"HDAC5; NRVM, two hours, 18264 1 μM, PE 20 μM",moves to cytoplasm
"Nc1cc(-c2ccccc2)nc2ccccc12 [Compound 20068, 2-Phenyl-quinolin-4-ylamine]",block of 18264-dependent nuclear export of HDAC5,HDAC5; NRVM pretreated with 20068 (2 μM) one hour before 18264 (1 μM),effective at blocking
same,inhibition at 10 µM,5-HT2B,76%
same,% Inhibition of Binding,5-HT1,19%
same,block of 18264-dependent ANF secretion,[2],effective at blocking
same,attenuation of 18264-dependent induction of MCIP1 protein expression,[3],blocking 18264-dependent increases in MCIP1 protein in a dose-dependent manner
same,"cytotoxicity (AK release), in words","[1]; presence or absence of hypertrophic stimuli, up to 3 micromolar, 48 hours",no significant cytotoxicity
same,inhibition at 10 µM,5-HT2C,63%
same,reduction of PE-dependent increase in cardiomyocyte cell volume,[4]; 3 μM compound,49%
same,attenuation of PE-dependent increase in cell volume (in words),[4]; 0.1-3 μM compound,attenuated
same,attenuation of PE-dependent increase in total cellular protein,[5],attenuated
"O=C(c1ccc(F)cc1)C1CCN(CCn2c(=O)[nH]c3ccccc3c2=O)CC1 [ketanserin, reference compound]",block of 18264-dependent ANF secretion,[2],able to block
same,attenuation of 18264-dependent induction of MCIP1 protein expression,[3],attenuated
